Measurements reported in patent US12194082B2, “Compositions and methods for treatment of homocystinuria” (THE REGENTS OF THE UNIVERSITY OF COLORADO, priority 2016, dated 2025).

Tested on: KO mice
Assay: DEXA bone mineralization and body composition in KO mice
Type: in vivo, mouse
Conditions: 7.5 mg/kg SC 3x/week from day 2 to about 5 months
Protocol: A PIXImusII DEXA scanner (GE Lunar Medical Systems) specifically designed for scanning small animals such as mice was used for DEXA analysis. This machine enabled quick and efficient determination of the body composition (lean, fat mass, and bone density) of a mouse before terminal tissue extraction procedures. Mice were fasted for 4 hours prior to the DEXA measurement to remove food from the gastro-intestinal tract. Mice were then anesthetized using IP bolus injection of 60 mg/kg ketamine and 15 mg/kg xylazine and placed on a tray in the DEXA machine. After the measurement was done (3˜5 minutes), the mice were removed from the DEXA machine and used in terminal procedures, such as tissue extractions.
The bone mineral density (BMD) and bone mineral content (BMC) were analyzed by DEXA for three groups of mice: +/− healthy heterozygous controls (n=4M+6F), affected KO controls (n=5M+13F), and 20NHS PEG-htCBS C15S (C15S/ME-200GS)-treated KO mice (n=6M+15F). The 20NHS PEG-htCBS C15S-treated mice were administered 7.5 mg/kg subcutaneously (SC) three times a week from day 2 to about 5 months. All −/− KO mice were treated for the initial 5 W (from 2 to 35 days of age) to prevent neonatal lethality.

With “20NHS PEG-htCBS C15S: htCBS C15S PEGylated with ME-200GS PEG (20 kDa linear NHS ester-activated PEG)” the “BMD vs control groups” value was “significantly higher BMD than both control groups” and the “osteoporosis and body composition (DEXA)” value was “completely prevented profound osteoporosis and improved body composition”.
